Measured values from ChEMBL document CHEMBL3507680, “University of Dundee, Gates Library screen for HepG2 cell viability”.

Experiment: Human HepG2 cell viability assay in 384 well format
Format: toxicity, cell-based
Design: dose 125 nL, time 70.5 hour; cytotoxicity at 70.5 h: concentration not given beside the values
Settings: HepG2 cells, read-out: Inhibition

Going from `CC(=O)N1CCCC2(CCC(=O)N2Cc2cccnc2)C1` (stereo unspecified) to `Cn1cc(C(=O)N2CCCC(c3cnccn3)C2)cn1` (stereo unspecified), the cytotoxicity at 70.5 h falls from 30.1% to -4.7%.

Compared with `Cc1ccc(NC2CCN(C(=O)c3ccoc3C)CC2)nn1`, `CCNc1cc2c(nn1)CCN(C(=O)c1cccc3c1OCO3)C2` is higher in cytotoxicity at 70.5 h: -0.801% for the first, 3.22% for the second.

First: COC(=O)NCC(=O)NC1CC(C)(C)Cc2oc(C)cc21 (stereo unspecified)
Second: COc1ccccc1CNC(=O)C(C)N1CC(n2nc(C)cc2C)C1 (stereo unspecified)
The cytotoxicity at 70.5 h of the first is higher: 1.57% for the first, -1.72% for the second.

First: COc1ccc(-n2nnc(C(=O)NCC3CCCCC3)n2)cc1
Second: COc1ccc(C(=O)NCc2ccco2)nn1
The cytotoxicity at 70.5 h of the first is lower: -12.2% for the first, -6.23% for the second.

Going from `COCCn1cnc2ccc(NC(=O)C(C)C)cc2c1=O` to `Cc1c(-c2ccncc2)n[nH]c1NC(=O)CCOC(C)C`, the cytotoxicity at 70.5 h rises from -7.01% to -4.44%.

First: Cc1nc(N2C[C@H]3CC[C@@H](C2)N3)nc2cc(S(C)(=O)=O)ccc12
Second: Cc1nn2c(N3CCC(C#N)CC3)cc(-c3ccccc3)nc2c1C
The cytotoxicity at 70.5 h of the first is lower: -2.58% for the first, 1.27% for the second.

Compared with `c1ccc(CCc2n[nH]c(CCN3CCCCC3)n2)cc1`, `O=C1CC[C@H](C(=O)N(CCc2ccccc2)C2CCOC2)N1` (stereo partly specified) is higher in cytotoxicity at 70.5 h: -13.4% for the first, 24.8% for the second.

First: COC(=O)C(CNC(=O)Nc1nncs1)Cc1ccc(O)cc1 (stereo unspecified)
Second: CC(CNC(=O)Nc1cn[nH]c1)N1CCc2ccccc2C1 (stereo unspecified)
The cytotoxicity at 70.5 h of the first is higher: -2.82% for the first, -7.18% for the second.

Compared with `Cc1nn(C)c(C)c1C(C)NC(=O)Nc1cccnc1N1CCCC1` (stereo unspecified), `Cc1nc(C)n(CC2CCCN(CCOc3cccc(F)c3)C2)n1` (stereo unspecified) is higher in cytotoxicity at 70.5 h: -15.8% for the first, 0.903% for the second.

First: O=C(NCc1cccnc1)[C@H]1CN2CCC1C[C@@H]2Cn1cc(CO)nn1 (stereo partly specified)
Second: CC(C)C(Sc1nccn1C1CC1)C(=O)NCc1cccnc1 (stereo unspecified)
The cytotoxicity at 70.5 h of the first is lower: -6.61% for the first, 16% for the second.

Compared with `CN1CCCC(c2cccc(CCC(=O)NCC3(C)COC3)n2)C1` (stereo unspecified), `CC1CN(C)CCN1CC(=O)NCCOc1cccc(F)c1` (stereo unspecified) is higher in cytotoxicity at 70.5 h: -1.36% for the first, -1.27% for the second.

Going from `CS(=O)(=O)CCN(CCCO)C1CCc2ccccc21` (stereo unspecified) to `CN(C)C(=O)CCCNc1ncc2c(n1)CCN2c1ccccc1`, the cytotoxicity at 70.5 h rises from -98.4% to -7.97%.

First: O=C(c1ccc[nH]1)N1CCOCC12CCCC2
Second: CC(CN1CCOC1=O)NC(=O)c1cccc(C#N)c1 (stereo unspecified)
The cytotoxicity at 70.5 h of the first is higher: 30.2% for the first, -3.83% for the second.

First: CC(Oc1ccccc1C(F)(F)F)C(=O)NS(=O)(=O)C(C)C (stereo unspecified)
Second: CC(C)N1CCC(CC(=O)NC(C(=O)O)c2ccc(F)cc2)CC1 (stereo unspecified)
The cytotoxicity at 70.5 h of the first is higher: 1.98% for the first, -10.8% for the second.

Compared with `Cc1nnc(CN2C[C@H]3CC[C@@H]2CN(C2Cc4ccccc4C2)C3)o1`, `CCN1CCCC(c2c(-c3ccccc3)ncn2CCc2c[nH]cn2)C1` (stereo unspecified) is lower in cytotoxicity at 70.5 h: 4.16% for the first, -11.9% for the second.

Going from `COCc1ccccc1CNc1nnc(C)c(C)c1C#N` to `Cc1nnn2c1COC(CNCc1ccccn1)C2` (stereo unspecified), the cytotoxicity at 70.5 h falls from 21.2% to -3.64%.

First: COc1ccc(CCNC(C)c2ccc3[nH]c(=O)[nH]c3c2)cc1OC (stereo unspecified)
Second: Cc1nc2c(c(=O)n1C)CCN(Cc1cc3ccccc3[nH]1)CC2
The cytotoxicity at 70.5 h of the first is higher: 3.32% for the first, 0.793% for the second.

Compared with `CN(C)Cc1cc(=O)n2c(n1)CN(S(=O)(=O)C1CC1)CCC2`, `Cc1c[nH]nc1C1CCN(S(=O)(=O)N(C)C)C1` (stereo unspecified) is lower in cytotoxicity at 70.5 h: -6.08% for the first, -8.85% for the second.

First: Cn1cnnc1CCNC(=O)c1cnn(Cc2ccccc2)c1
Second: Cc1ccc(NC(=O)Cn2ncc(SCC(N)=O)c(Cl)c2=O)cc1
The cytotoxicity at 70.5 h of the first is lower: -14.9% for the first, -7.72% for the second.

Compared with `COc1cc(NC(=O)C2CC(=O)N(c3cccc(F)c3)C2)ncn1` (stereo unspecified), `CCn1c(CN2CCCC(Cn3cncn3)C2)nc2c(F)cccc21` (stereo unspecified) is higher in cytotoxicity at 70.5 h: -3.43% for the first, 1.73% for the second.

Going from `CCOCC1CN(CCOc2ccc(Cl)cc2)Cc2c1cnn2C` (stereo unspecified) to `CCOC(=O)c1cnn(C2CCN(C(=O)CC3C=CCC3)CC2)c1N` (stereo unspecified), the cytotoxicity at 70.5 h falls from 2.89% to -1.64%.

Going from `CNc1oc(-c2ccc(S(=O)(=O)N(C)C)o2)nc1C#N` to `CCC(C)(N)c1nc(=O)c(C(C)C)c(C)[nH]1` (stereo unspecified), the cytotoxicity at 70.5 h falls from 22.7% to -5.63%.

Compared with `CCc1noc(CN2CCCN(C(N)=O)CC2)n1`, `CC(OCC1CC1)C(=O)N1CCCN(Cc2nccn2C(C)C)CC1` (stereo unspecified) is higher in cytotoxicity at 70.5 h: -12% for the first, -5.25% for the second.
